Test results reported in patent publication US12540137B2, “N-1 branched alkyl ether substituted imidazo[4,5-c]quinoline compounds, compositions, and methods” (Solventum Intellectual Properties Company, priority 2018, dated 2026).

What was measured:
[1] = target: T1, human TLR7 (Homo sapiens, UniProt Q9NYK1); assay: TLR activation, HEK-BLUE-hTLR7 SEAP reporter cells; type: cell-based; details: 16-20 hours, SEAP response at least 2× vehicle control, tested 0.01-30 micromolar
T1 construct: host or cells: HEK293 (HEK-BLUE-hTLR7)
T1 sequence (Q9NYK1 27-1049): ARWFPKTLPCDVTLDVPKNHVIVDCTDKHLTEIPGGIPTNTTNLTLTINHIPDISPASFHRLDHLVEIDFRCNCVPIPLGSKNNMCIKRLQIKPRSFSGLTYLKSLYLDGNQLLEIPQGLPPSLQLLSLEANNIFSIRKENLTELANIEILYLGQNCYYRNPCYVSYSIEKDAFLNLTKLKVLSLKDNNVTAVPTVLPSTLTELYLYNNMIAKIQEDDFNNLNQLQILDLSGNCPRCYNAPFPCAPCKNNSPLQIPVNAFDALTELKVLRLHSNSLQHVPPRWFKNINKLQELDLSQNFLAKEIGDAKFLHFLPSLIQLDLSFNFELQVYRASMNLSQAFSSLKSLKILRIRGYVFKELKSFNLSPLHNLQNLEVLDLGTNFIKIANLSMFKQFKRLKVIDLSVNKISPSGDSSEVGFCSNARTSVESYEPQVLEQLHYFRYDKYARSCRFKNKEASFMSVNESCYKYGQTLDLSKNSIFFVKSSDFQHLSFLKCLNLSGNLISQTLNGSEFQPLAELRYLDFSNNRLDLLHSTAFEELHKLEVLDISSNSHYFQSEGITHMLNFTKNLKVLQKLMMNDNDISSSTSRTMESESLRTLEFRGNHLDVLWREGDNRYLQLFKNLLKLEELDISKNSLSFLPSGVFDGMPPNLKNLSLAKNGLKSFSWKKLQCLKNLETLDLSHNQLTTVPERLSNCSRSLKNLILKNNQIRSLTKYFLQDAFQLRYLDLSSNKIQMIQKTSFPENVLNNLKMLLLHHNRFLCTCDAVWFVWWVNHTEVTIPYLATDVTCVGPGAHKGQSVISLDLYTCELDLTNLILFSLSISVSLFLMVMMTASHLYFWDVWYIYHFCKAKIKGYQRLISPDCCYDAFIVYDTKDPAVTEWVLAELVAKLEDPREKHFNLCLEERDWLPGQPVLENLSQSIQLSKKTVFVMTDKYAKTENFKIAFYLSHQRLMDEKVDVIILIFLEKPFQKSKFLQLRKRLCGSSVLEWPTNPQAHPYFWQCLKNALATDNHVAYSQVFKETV
Protocol: (§1) HEK-BLUE-hTLR7 or hTLR8 reporter cells were obtained from InvivoGen, San Diego, CA. According to the manufacturer's description, these reporter cells were prepared by co-transfection of HEK293 cells with an inducible secreted embryonic alkaline phosphatase (SEAP) reporter gene and either the human TLR7 or TLR8 gene. The SEAP reporter gene was placed under the control of an IFN−β minimal promoter fused to five NF-κB and AP-1-binding sites. In the presence of a TLR ligand, activation of NF-κB and AP-1 occurs, resulting in a corresponding increase in SEAP levels.
(§2) In the assay, the HEK cells were grown and maintained using standard cell culture techniques in a growth medium that contained Dulbecco's Modified Eagle Medium (ThermoFisher Scientific Incorporated, Waltham, MA) supplemented with 1% penicillin/streptomycin and 10% heat-inactivated Gibco fetal bovine serum (ThermoFisher Scientific). Each compound was solubilized in DMSO to create a 3 mM stock solution. The stock solution was then further diluted with the growth medium to prepare serial dilutions. Each test compound was tested at a concentration of 30, 10, 3.3, 1.1, 0.37, 0.12, 0.04, and 0.01 micromolar using a 96-well format with 5×10^4 cells and 200 microliters of growth medium per well.
(§3) For each compound, hTLR7, hTLR8, and their respective null control HEK cells were screened. DMSO serially diluted into the growth medium served as the vehicle control. Cell culture supernatants containing the SEAP reporter were collected after an incubation period of 16-20 hours in a cell culture incubator (37° C. and 5% CO2), and either analyzed immediately or stored at −80° C. SEAP levels were measured using the colorimetric enzyme assay (QUANTI-BLUE (InvivoGen) according to manufacturer's instructions.
(§4) Specifically, the minimum effective concentration of each compound (micromolar) was determined as the lowest concentration of the compound that produced a SEAP expression response at least 2× greater than that observed with the vehicle control wells.

[2] = target: T2, human TLR8 (Homo sapiens, UniProt Q9NR97); assay: TLR activation, HEK-BLUE-hTLR8 SEAP reporter cells; type: cell-based; details: 16-20 hours, SEAP response at least 2× vehicle control, tested 0.01-30 micromolar
T2 construct: host or cells: HEK293 (HEK-BLUE-hTLR8)
T2 sequence (Q9NR97 27-1041): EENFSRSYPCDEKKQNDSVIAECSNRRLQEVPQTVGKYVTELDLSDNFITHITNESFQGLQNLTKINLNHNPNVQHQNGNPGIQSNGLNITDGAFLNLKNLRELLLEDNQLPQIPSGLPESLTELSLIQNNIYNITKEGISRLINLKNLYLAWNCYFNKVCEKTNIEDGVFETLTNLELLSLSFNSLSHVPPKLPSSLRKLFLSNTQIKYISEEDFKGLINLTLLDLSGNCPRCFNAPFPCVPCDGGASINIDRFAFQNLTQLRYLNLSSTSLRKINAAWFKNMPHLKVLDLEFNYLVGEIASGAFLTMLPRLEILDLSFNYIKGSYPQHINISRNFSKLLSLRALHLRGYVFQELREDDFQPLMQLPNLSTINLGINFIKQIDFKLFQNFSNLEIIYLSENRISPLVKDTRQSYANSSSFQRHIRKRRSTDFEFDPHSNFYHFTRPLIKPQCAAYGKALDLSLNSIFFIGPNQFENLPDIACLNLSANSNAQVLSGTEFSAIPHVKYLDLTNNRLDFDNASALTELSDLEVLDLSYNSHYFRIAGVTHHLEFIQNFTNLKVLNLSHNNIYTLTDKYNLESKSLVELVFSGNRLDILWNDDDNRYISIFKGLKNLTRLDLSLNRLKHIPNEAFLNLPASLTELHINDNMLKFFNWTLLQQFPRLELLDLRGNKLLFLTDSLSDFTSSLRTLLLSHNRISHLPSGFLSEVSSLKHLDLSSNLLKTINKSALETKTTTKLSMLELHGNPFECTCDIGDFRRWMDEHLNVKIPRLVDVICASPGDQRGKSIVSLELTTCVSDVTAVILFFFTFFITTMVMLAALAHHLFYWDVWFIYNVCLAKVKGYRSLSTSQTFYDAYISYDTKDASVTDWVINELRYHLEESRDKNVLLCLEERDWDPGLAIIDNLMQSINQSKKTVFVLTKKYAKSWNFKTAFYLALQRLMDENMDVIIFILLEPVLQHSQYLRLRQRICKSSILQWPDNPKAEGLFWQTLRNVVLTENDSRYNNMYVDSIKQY
Protocol: as §1, §2, §3, §4

CCOC[C@@H](n1cnc2c(N)nc3ccccc3c21)C1(O)CCCC1 [Example 14, 1-[(1R)-1-(4-aminoimidazo[4,5-c]quinolin-1-yl)-2-ethoxy-ethyl]cyclopentanol]
MEC to Produce TLR Activation TLR 7 [1]: 0.04 µM
MEC to Produce TLR Activation TLR 8 [2]: 30 µM
